Results: patent US6552196B2, “Quinolone carboxylic acid derivatives” (Dong Wha Pharmaceutical Industrial Co., Ltd., priority 1997, dated 2003)

How the values were obtained:
Assay type in all cases: cell-based
[1] = tested on: Pseudomonas aeruginosa 1771M; assay: In vitro antibacterial activity (MIC), agar dilution; details: Pseudomonas aeruginosa, 1771M, 18 h, read-out: minimum inhibitory concentration (MIC)
Description: (§1) 10^7 cfu/ml of bacteria were inoculated and cultured for 18 hours at 37° C. and then the antibacterial activities were measured. For the methicillin resistant strains the activities were measured after 48 hours of cultivation at 30° C. Hoechst Standard strains were used for the testings.

[2] = tested on: Pseudomonas aeruginosa 1771; assay: as above; details: 2-fold agar dilution, Muller-Hinton agar, 18 hours at 37° C., read-out: minimum inhibitory concentration (MIC)
Description: as §1

Esherichia coli TEM = assay: as above; details: 2-fold agar dilution, Muller-Hinton agar, 18 hours at 37° C., read-out: minimum inhibitory concentration (MIC)
Description: as §1

[3] = tested on: Streptococcus faecium MD 8b; assay: as above; details: Enterococcus faecium, MD8B, 2-fold agar dilution, Muller-Hinton agar, 18 hours at 37° C., read-out: minimum inhibitory concentration (MIC)
Description: as §1

[4] = tested on: Staphylococcus aureus 285; assay: as above; details: 2-fold agar dilution, Muller-Hinton agar, 18 hours at 37° C., read-out: minimum inhibitory concentration (MIC)
Description: as §1

Enterobacter clocae P99 = assay: as above; details: 2-fold agar dilution, Muller-Hinton agar, 18 hours at 37° C., read-out: minimum inhibitory concentration (MIC)
Description: as §1

[5] = tested on: Streptococcus pyogens 308A; assay: as above; details: 2-fold agar dilution, Muller-Hinton agar, 18 hours at 37° C., read-out: minimum inhibitory concentration (MIC)
Description: as §1

Klebsiella oxytoca 1082E = assay: as above; details: 2-fold agar dilution, Muller-Hinton agar, 18 hours at 37° C., read-out: minimum inhibitory concentration (MIC)
Description: as §1

Esherichia coli 078 = assay: as above; details: 2-fold agar dilution, Muller-Hinton agar, 18 hours at 37° C., read-out: minimum inhibitory concentration (MIC)
Description: as §1

[6] = tested on: Enterobacter clocae 1321E; assay: as above; details: 2-fold agar dilution, Muller-Hinton agar, 18 hours at 37° C., read-out: minimum inhibitory concentration (MIC)
Description: as §1

[7] = tested on: Pseudomonas aeruginosa 9027; assay: as above; details: 2-fold agar dilution, Muller-Hinton agar, 18 hours at 37° C., read-out: minimum inhibitory concentration (MIC)
Description: as §1

Esherichia coli DC0 = assay: as above; details: 2-fold agar dilution, Muller-Hinton agar, 18 hours at 37° C., read-out: minimum inhibitory concentration (MIC)
Description: as §1

Salmonella typhimurium = assay: as above; details: Salmonella enterica, 2-fold agar dilution, Muller-Hinton agar, 18 hours at 37° C., read-out: minimum inhibitory concentration (MIC)
Description: as §1

[8] = tested on: Pseudomonas aeruginosa 1592E; assay: as above; details: 2-fold agar dilution, Muller-Hinton agar, 18 hours at 37° C., read-out: minimum inhibitory concentration (MIC)
Description: as §1

[9] = tested on: Staphylococcus aureus 503; assay: as above; details: 2-fold agar dilution, Muller-Hinton agar, 18 hours at 37° C., read-out: minimum inhibitory concentration (MIC)
Description: as §1

Esherichia coli 1507E = assay: as above; details: 2-fold agar dilution, Muller-Hinton agar, 18 hours at 37° C., read-out: minimum inhibitory concentration (MIC)
Description: as §1

[10] = tested on: Klebsiella aerogenes 1522E; assay: as above; details: 2-fold agar dilution, Muller-Hinton agar, 18 hours at 37° C., read-out: minimum inhibitory concentration (MIC)
Description: as §1

[11] = tested on: Staphylococcus aureus SG511; assay: as above; details: 2-fold agar dilution, Muller-Hinton agar, 18 hours at 37° C., read-out: minimum inhibitory concentration (MIC)
Description: as §1

[12] = tested on: Streptococcus pyogens 77A; assay: as above; details: 2-fold agar dilution, Muller-Hinton agar, 18 hours at 37° C., read-out: minimum inhibitory concentration (MIC)
Description: as §1

[13] = tested on: Staphylococcus aureus 303; assay: In vitro antibacterial activity against resistant strains (MIC); details: resistant strain Staphylococcus aureus 303; 2-fold agar dilution; methicillin resistant strains 48 hours at 30° C.; read-out: minimum inhibitory concentration (MIC)
Description: as §1

[14] = tested on: Staphylococcus aureus 693E; assay: as above; details: resistant strain Staphylococcus aureus 693E; 2-fold agar dilution; methicillin resistant strains 48 hours at 30° C.; read-out: minimum inhibitory concentration (MIC)
Description: as §1

[15] = tested on: Staphylococcus aureus 694E; assay: as above; details: resistant strain Staphylococcus aureus 694E; 2-fold agar dilution; methicillin resistant strains 48 hours at 30° C.; read-out: minimum inhibitory concentration (MIC)
Description: as §1

[16] = tested on: Staphylococcus aureus 703E; assay: as above; details: resistant strain Staphylococcus aureus 703E; 2-fold agar dilution; methicillin resistant strains 48 hours at 30° C.; read-out: minimum inhibitory concentration (MIC)
Description: as §1

[17] = tested on: Staphylococcus aureus 692E; assay: as above; details: resistant strain Staphylococcus aureus 692E; 2-fold agar dilution; methicillin resistant strains 48 hours at 30° C.; read-out: minimum inhibitory concentration (MIC)
Description: as §1

[18] = tested on: Staphylococcus aureus 88E; assay: as above; details: resistant strain Staphylococcus aureus 88E; 2-fold agar dilution; methicillin resistant strains 48 hours at 30° C.; read-out: minimum inhibitory concentration (MIC)
Description: as §1

[19] = tested on: Staphylococcus aureus 256E; assay: as above; details: resistant strain Staphylococcus aureus 256E; 2-fold agar dilution; methicillin resistant strains 48 hours at 30° C.; read-out: minimum inhibitory concentration (MIC)
Description: as §1

[20] = tested on: Staphylococcus aureus 690E; assay: as above; details: resistant strain Staphylococcus aureus 690E; 2-fold agar dilution; methicillin resistant strains 48 hours at 30° C.; read-out: minimum inhibitory concentration (MIC)
Description: as §1

[21] = tested on: Staphylococcus epidermidis 178; assay: as above; details: resistant strain Staphylococcus epidermidis 178; 2-fold agar dilution; methicillin resistant strains 48 hours at 30° C.; read-out: minimum inhibitory concentration (MIC)
Description: as §1

[22] = tested on: Staphylococcus aureus 293; assay: as above; details: resistant strain Staphylococcus aureus 293; 2-fold agar dilution; methicillin resistant strains 48 hours at 30° C.; read-out: minimum inhibitory concentration (MIC)
Description: as §1

[23] = tested on: Staphylococcus aureus 695E; assay: as above; details: resistant strain Staphylococcus aureus 695E; 2-fold agar dilution; methicillin resistant strains 48 hours at 30° C.; read-out: minimum inhibitory concentration (MIC)
Description: as §1

[24] = tested on: Staphylococcus epidermidis 291; assay: as above; details: resistant strain Staphylococcus epidermidis 291; 2-fold agar dilution; methicillin resistant strains 48 hours at 30° C.; read-out: minimum inhibitory concentration (MIC)
Description: as §1

[25] = tested on: Staphylococcus aureus 701E; assay: as above; details: resistant strain Staphylococcus aureus 701E; 2-fold agar dilution; methicillin resistant strains 48 hours at 30° C.; read-out: minimum inhibitory concentration (MIC)
Description: as §1

[26] = tested on: Staphylococcus aureus 179; assay: as above; details: resistant strain Staphylococcus aureus 179; 2-fold agar dilution; methicillin resistant strains 48 hours at 30° C.; read-out: minimum inhibitory concentration (MIC)
Description: as §1

[27] = tested on: Staphylococcus aureus 121E; assay: as above; details: resistant strain Staphylococcus aureus 121E; 2-fold agar dilution; methicillin resistant strains 48 hours at 30° C.; read-out: minimum inhibitory concentration (MIC)
Description: as §1

[28] = tested on: Staphylococcus aureus 208E; assay: as above; details: resistant strain Staphylococcus aureus 208E; 2-fold agar dilution; methicillin resistant strains 48 hours at 30° C.; read-out: minimum inhibitory concentration (MIC)
Description: as §1

[29] = tested on: Staphylococcus aureus 697E; assay: as above; details: resistant strain Staphylococcus aureus 697E; 2-fold agar dilution; methicillin resistant strains 48 hours at 30° C.; read-out: minimum inhibitory concentration (MIC)
Description: as §1

[30] = tested on: Staphylococcus aureus 8236; assay: as above; details: resistant strain Staphylococcus aureus 8236; 2-fold agar dilution; methicillin resistant strains 48 hours at 30° C.; read-out: minimum inhibitory concentration (MIC)
Description: as §1

[31] = tested on: Staphylococcus aureus 241; assay: as above; details: resistant strain Staphylococcus aureus 241; 2-fold agar dilution; methicillin resistant strains 48 hours at 30° C.; read-out: minimum inhibitory concentration (MIC)
Description: as §1

Measured: MIC

CON=C1CN(c2c(F)c(N)c3c(=O)c(C(=O)O)cn(C4CC4)c3c2F)CC12CN(C)C2 [Example 11, 1-Cyclopropyl-5-amino-6,8-difluoro-7-[8-(methoxyimino)-2-methyl-2,6-diazaspiro[3,4]oct-6-yl]-4-oxo-1,4-dihydro-3-quinolinecarboxylic acid]
0.391 µg/mL: [1]
0.195 µg/mL: [13] | [22] | [26] | [30] | [31]
0.781 µg/mL: [2] | [7] | [8] | [21] | [24]
0.049 µg/mL: [3] | [10]
< 0.002 µg/mL: Klebsiella oxytoca 1082E | Esherichia coli 078 | [11]
0.098 µg/mL: Esherichia coli DC0
0.007 µg/mL: [4] | Salmonella typhimurium | [17] | [18] | [19] | [20]
0.004 µg/mL: [6] | [9] | [12] | [29]
0.013 µg/mL: all other assays above

C[C@@H]1CN(c2c(F)c(N)c3c(=O)c(C(=O)O)cn(C4CC4)c3c2F)C[C@H](C)N1 [Sparfloxacin, sparfloxacin, reference compound]
0.004 µg/mL: Esherichia coli 078 | [6]
3.12 µg/mL: [13]
< 0.002 µg/mL: Klebsiella oxytoca 1082E
6.25 µg/mL: [21] | [22] | [24] | [26] | [30] | [31]
0.195 µg/mL: [1] | Esherichia coli DC0 | [12]
0.391 µg/mL: [3] | [5]
0.025 µg/mL: Esherichia coli 1507E | [10]
0.049 µg/mL: [4] | [9] | [14] | [17] | [20] | [23] | [29]
0.781 µg/mL: [2] | [7] | [8]
0.007 µg/mL: Enterobacter clocae P99 | Salmonella typhimurium
0.013 µg/mL: Esherichia coli TEM
0.098 µg/mL: all other assays above
